According to patent publication US12521406B2, “Use of compounds in the treatment of fungal infections” (Basilea Pharmaceutica International AG, Allschwil, priority 2020, dated 2026):

Key:
[1] = test system: Aspergillus fumigatus, Scedosporium prolificans, and Fusarium solani; assay: 5-fluorouracil immunosuppressed mice with IMIs; format: in vivo
[2] = molecular target: T1, phosphatidylinositol glycan anchor biosynthesis class W (PIGW) protein (Homo sapiens, UniProt Q7Z7B1); assay: Inhibition of PIGW, closest mammalian ortholog of GWT1; format: biochemical; details: closest mammalian ortholog of the fungal GWT1 protein
T1 sequence (Q7Z7B1 1-504): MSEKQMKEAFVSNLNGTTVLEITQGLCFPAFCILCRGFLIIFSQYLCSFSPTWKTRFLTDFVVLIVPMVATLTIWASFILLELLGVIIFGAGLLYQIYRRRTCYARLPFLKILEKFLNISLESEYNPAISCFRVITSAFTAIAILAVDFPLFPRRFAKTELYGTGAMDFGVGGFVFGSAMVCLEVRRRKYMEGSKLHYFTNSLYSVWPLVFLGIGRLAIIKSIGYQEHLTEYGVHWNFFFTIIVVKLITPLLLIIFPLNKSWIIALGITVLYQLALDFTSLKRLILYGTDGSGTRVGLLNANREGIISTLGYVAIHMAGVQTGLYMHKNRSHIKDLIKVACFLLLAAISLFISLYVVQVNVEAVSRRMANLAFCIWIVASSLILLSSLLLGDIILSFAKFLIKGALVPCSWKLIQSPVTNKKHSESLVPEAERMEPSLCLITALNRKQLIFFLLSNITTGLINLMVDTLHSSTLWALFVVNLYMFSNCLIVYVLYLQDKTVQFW
Text: (§1) Compound 1A inhibits the fungal glycosylphosphatidylinositol (GPI)-anchored wall transfer protein 1 (GWT1) enzyme, a highly conserved inositol acylase that catalyzes an early step in the GPI-anchored biosynthesis pathway. This inhibition has pleiotropic effects on the fungal cell due to inhibition of cell wall mannoprotein localization, which comprises cell wall integrity, biofilm formation, germ tube formation, and fungal growth.

[3] = molecular target: fungal glycosylphosphatidylinositol (GPI)-anchored wall transfer protein 1 (GWT1) enzyme (Saccharomyces cerevisiae, UniProt P47026); assay: Inhibition of fungal GWT1 enzyme; format: biochemical
Text: as §1

[4] = test system: Candida spp., Cryptococcus spp., Aspergillus spp., Scedosporium spp., Fusarium spp., and some Mucorales fungi; assay: In vitro antifungal activity; format: cell-based
Text: These rare mold and rare yeast species generally pose no threat to healthy subjects, but can lead to invasive mold infections in immunocompromised individuals.

[5] = test system: Aspergillus spp. clinical isolates; assay: 2017 and 2018 surveillance of antifungal activity against Aspergillus clinical isolates (MEC); format: cell-based; details: Aspergillus isolates likely to be found in the clinical patient population
Protocol: The MEC in […] (MEC90) for Aspergillus isolates likely to be found in the clinical patient population under study is 0.03 μg/mL.

[6] = in vivo
[7] = test system: Fusarium, Aspergillus/Lichtheimia, C. albicans, L. prolificans infection; details: human, in vivo
Text: Population: A total of 15 patients with life-threatening/serious fungal infections received treatment, with slight modifications. […] Of these patients, 12 have an invasive Fusarium infection, while the remaining patients have Aspergillus/Lichtheimia infection, C. albicans infection, and L. prolificans infection. […] These patients show a broad range of fungal infection sites with sinus, spine, ankle, skin, eye, brain, and disseminated infections all observed. Many of these patients also have an underlying disease/condition, such as AML/ALL/MDS, SC/solid organ transplantation, or trauma.
Updates to Dosing Regimen: Seven patients received IV dosing of compound 1, and six of these seven switched to oral doses. Eight patients received oral doses only. […] Additionally, eight patients received oral compound 1 at 400 mg BID rather than 800 mg QD.

[8] = test system: A. fumigatus; assay: PK-PD study in immunocompromised mice infected with 6 strains of A. fumigatus; format: in vivo; details: fungal burden (CEs by qPCR) in lung homogenates at 96 hours; 6 A. fumigatus strains
Protocol: Pharmacokinetic-pharmacodynamic (PK-PD) studies in immunosuppressed mice with invasive infections caused by A. fumigatus have shown that the area under the concentration-time curve (AUC) divided by the minimal effective concentration (MEC) ratio is the driver of efficacy.
In a pharmacokinetic/pharmacodynamic (PK-PD) study, immunocompromised mice were infected with 6 strains of A. fumigatus, inclusive of wild type, azole-resistant, and echinocandin-resistant strains. Groups of animals were dosed with compound 1 at different dose fractionations. […] The stasis and 1-logarithm drop endpoints were defined as the quantity of A. fumigatus in CEs just prior to compound 1 administration compared to CEs at the endpoint of assessment at 96 hours.

[9] = Phase 1, healthy volunteers
Text: The duration of the multiple-dose regimens in these studies was 7, 14, and 42 days (6 weeks).
One dose regimen of compound 1 will be evaluated in this study.

[10] = test system: Aspergillus spp. or rare molds; assay: Phase 2 open-label study in patients with invasive mold infections; format: in vivo, human; details: 12 patients treated
Text: This is a Phase 2, multicenter, open-label, non-comparative study to evaluate the safety and efficacy of compound 1 for the treatment of IMIs caused by Aspergillus spp. or rare molds (e.g., Scedosporium spp., Fusarium spp., and Mucorales fungi). Patients 18 years of age or older will undergo Screening procedures for up to 5 days, following which eligible patients will participate in the study drug Treatment Period for up to 6 weeks, with a Follow-Up Visit 4 weeks after EOST, and a Follow-Up Phone Call 12 weeks after Day 1 (Day 84). The total duration of a patient's participation in the study will be approximately 12 weeks, inclusive of the follow-up telephone call required on Day 84. Patients who require treatment for longer than 6 weeks can be switched to other licensed antifungal therapy (OLAT) at the discretion of the Investigator and in consultation with the Medical Monitor if the situation allows.
This study will consist of a single treatment arm consisting of a loading dose of 1000 mg compound 1, administered over 3 hours by IV infusion twice daily (BID) within the first 24 hours after initiation of the first infusion. On Days 2 and 3, 600 mg compound 1 will be administered over 3 hours by IV infusion once daily (QD). […]

Chain of fungal glycosylphosphatidylinositol (GPI)-anchored wall transfer protein 1 (GWT1) enzyme (P47026 whole entry): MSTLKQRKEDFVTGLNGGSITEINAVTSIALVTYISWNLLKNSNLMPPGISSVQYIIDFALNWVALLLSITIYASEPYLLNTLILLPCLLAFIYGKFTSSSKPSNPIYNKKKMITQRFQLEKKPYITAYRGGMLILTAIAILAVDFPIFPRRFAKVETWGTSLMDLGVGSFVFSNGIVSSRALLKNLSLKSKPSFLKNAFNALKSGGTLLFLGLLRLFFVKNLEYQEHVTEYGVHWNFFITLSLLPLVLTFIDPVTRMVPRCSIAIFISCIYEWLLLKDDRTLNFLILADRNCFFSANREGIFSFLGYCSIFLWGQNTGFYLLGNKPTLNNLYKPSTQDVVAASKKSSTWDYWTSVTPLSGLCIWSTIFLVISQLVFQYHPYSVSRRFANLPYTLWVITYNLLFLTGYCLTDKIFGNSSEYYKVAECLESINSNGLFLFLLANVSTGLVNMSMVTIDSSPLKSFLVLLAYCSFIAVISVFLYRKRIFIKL

SMILES	pulmonary fungal colony counts [1]	survival rates [1]	inhibition of PIGW protein [2]	inhibition of fungal GWT1 enzyme [3]	in vitro antifungal activity ([4]; including azole- and echinocandin-resistant strains)	antifungal activity against clinical isolates of rare mold and rare yeast infections ([4]; rare molds and rare yeasts listed)	MEC90 [5] [µg/mL]	conversion of prodrug to active moiety compound 1A [6]	tissue distribution [6]	tolerability over extended treatment durations [7]	median total drug AUC/MEC which achieved 1-logarithm kill endpoint [8]	median total drug AUC/MEC which achieved stasis endpoint [8]	safety and tolerability of the dose regimen [9]	patients with good response (at Day 42 or earlier) [10] [patients]
Nc1ncccc1-c1cc(Cc2ccc(COc3ccccn3)cc2)no1 [Compound 1A]	reduced pulmonary fungal colony counts	statistically significantly improved survival rates	does not inhibit	inhibits	broad in vitro antifungal activity	antifungal activity against a broad range of clinical isolates	0.03							
Nc1c(-c2cc(Cc3ccc(COc4ccccn4)cc3)no2)ccc[n+]1COP(=O)([O-])O [compound 1]								rapidly converted in vivo by phosphatases	wide-tissue distribution, including the eye and central nervous system	generally well tolerated	5258.2	2801.6	safe and well tolerated	8
